From patent US11963966B2, “Compositions and methods for treating ovarian tumors” (Dana-Farber Cancer Institute, Inc., priority 2017, dated 2024)
Entries after “also recorded” stand apart in the source; their conditions may differ.

Experiments:
OVACR8 = assay: Screen of 14 JAK/STAT pathway inhibitors, CellTiterGlo viability, 2D and 3D cultures; format: cell-based; settings: OVACR8, 1 μM, 2D and 3D culture
Description: (§1) FIG. 6A-FIG. 6G are a series of graphs and images depicting the impact of JAK/STAT-inhibition on spheroid formation, invasion and killing ex vivo and in vitro. FIG. 6A a histogram (FIG. 11B), showing drug screening with 14 compounds (at 1 μM) inhibiting the JAK/STAT pathway in OVACR4. Relative viability compared to DMSO control measured by CTG. […] The same library was screened in 2D-cultures of OVACR4 (FIG. 11A), and 2D-cultures of OVACR8 (FIG. 11C) and 3D-cultures of OVACR8 (FIG. 11D). FIG. 6B is a series of plots showing drug sensitivity testing using the GILA assay in platinum-resistant ex vivo spheroid cultures of patients DF3291 and DF3266, The X-axis indicates the log μM concentration of drugs indicated in the legend, Y-axis indicates the percentage of luminescence signal as indicator for viability relatively to DMSO treated cells. In both patients, half maximal effective concentration (EC50) were ˜100 nM and ˜10 nM, respectively, while other drugs routinely used for the treatment of (platinum-resistant) ovarian cancer had EC50>10 μM. […] 20 spheroids clusters were analyzed for each iteration. […]
FIG. 11A-FIG. 11E are a series of histograms of OVACR4 and OVACR8 ovarian cancer cell lines grown in 2D and 3D cultures and treated with 14 JAK/STAT pathway inhibitors at 1 μM. Vability of the cells was determined using the CellTiterGlo assay. […]

[1] = tested on: patient ascites-derived spheroids; assay: Mesothelial clearance (invasion through mesothelial monolayer); format: cell-based; settings: pre-treatment 30 or 120 minutes followed by drug removal
Description: as §1, with “μM. FIG. 6C is a series of images of microscopic analysis of spheroids with different drug treatments to highlight the morphologic changes during therapy with drugs listed. Inhibition of JAK/STAT pathway disrupts ex vivo spheroid cultures.” for “μM.”

[2] = tested on: spheroids of ovarian cancer cell lines OVCAR8 and TKYNU; assay: as above; format: cell-based; settings: treatment 30 minutes followed by drug removal
Description: as §1, with “μM. FIG. 6C is a series of images of microscopic analysis of spheroids with different drug treatments to highlight the morphologic changes during therapy with drugs listed. Inhibition of JAK/STAT pathway disrupts ex vivo spheroid cultures.” for “μM.”

PDX model DF20 SC tumors = assay: PDX model DF20, SC injected cancer cells, IP JSI-124 vs vehicle, BLI; format: in vivo, mice
Description: FIG. 7A-FIG. 7E are a series of graphs and images that depict the impact of JAK/STAT-inhibition on spheroid formation in vivo and anti-tumor activity. […] Each of these were performed following intraperitoneal (IP) or subcutaneous (SC) injection of cancer cells followed by IP therapy with JSI-124 vs. vehicle. Each group includes 5 mice. The inverted triangle indicates the time=0 of cancer cell injection. […] Mice were injected IP with tumor cells and one week later started treatment for a total 14 days. Each group includes 5 mice. Y-axis indicates log of bioluminescence imaging (BLI) signal (log total flux in p/s). Values are given as mean of log BLI signal, error bars indicate standard deviation from the mean. ***p<0.0001 (two-sided t test comparing mean±STDEV at Day 15 of treatment). […] Each group includes 5 mice. Y-axis indicates log BLI signal (log total flux in p/s). Values are given as mean of log BLI signal, error bars indicate standard deviation from the mean. ***p<0.0001 (two-sided t test comparing mean±STDEV at Day 15 of treatment). […] Mice were injected SC with tumor cells and one week later started treatment for a total 14 days. Each group includes 5 mice. Y-axis indicates log BLI signal (log total flux in p/s). Values are given as mean of log BLI signal, error bars indicate standard deviation from the mean. ***p<0.0001 (two-sided t test comparing mean±STDEV at Day 15 of treatment). […] Each group includes 5 mice. Y-axis indicates log BLI signal (log total flux in p/s). Values are given as mean of log BLI signal, error bars indicate standard deviation from the mean. ***p<0.0001 (two-sided t test comparing mean±STDEV at Day 15 of treatment).
(§2) A frequently used treatment modality for advanced ovarian cancer is the intraperitoneal administration of chemotherapy, such as cisplatin, which has local effects, but is also systemically reabsorbed to treat potential metastatic disease. […] Tumor growth was compared following IP JSI-124 treatment v. vehicle.

[3] = Adverse effects in JSI-124 treated PDX mice; format: in vivo; settings: IP JSI-124 treated PDX mice
Source text: as §2

[4] = SC tumors established 3 weeks, then IP treatment 14 days
[5] = SC tumors established 7 days, then 14 days IP therapy

Compound: CC(C)(O)/C=C/C(=O)[C@](C)(O)[C@H]1[C@@H](O)C[C@@]2(C)[C@@H]3CC=C4[C@H](C=C(O)C(=O)C4(C)C)[C@]3(C)C(=O)C[C@]12C [JSI-124, cucurbitacin I]
- Viability (CellTiterGlo), cell killing (OVACR8): most effective compound leading to cell killing
- Ability to invade (clear) the mesothelial monolayer [1]: significantly reduced ability to invade the mesothelial monolayer; also recorded: unable to invade through the mesothelial monolayer
- Ability to invade the mesothelium [2]: abolished their ability to invade the mesothelium; also recorded: unable to invade through the mesothelial monolayer
- Established SC tumors (PDX model DF20 SC tumors; [4]): significant and near complete elimination of SC tumors
- mean day 15 log BLI signal±standard deviation (PDX model DF20 SC tumors; [4]): 8.52×10^8±3.1×10^8 p/s
- Growth of SC tumors (PDX model DF20 SC tumors; [5]): significantly inhibit development of tumors growth of SC tumors
- mean day 15 log BLI signal±standard deviation (PDX model DF20 SC tumors; [5]): 5.55×10^8±2.2×10^8 p/s
- Adverse effect (body weight, ascites/edema) [3]: increased weight due to increased non-malignant ascites
